Here are results for eleven compounds from patent US20260034146A1, “NEUROACTIVE 19-ALKOXY-17-S[…], PRODRUGS THEREOF, AND METHODS OF TREATMENT USING SAME” (priority 2012, published 2026).

Assay [1] has as its target rat α1β2γ2L type GABAA receptors expressed in Xenopus laevis oocytes (Rattus norvegicus (Rat), UniProt P62813+P63138, INS375LLRMFSFK). Kind of assay: Oocyte electrophysiology: potentiation of chloride currents mediated by 2 μM GABA, and direct gating. The assay is classed as cell-based. To be noted: ± SEM; for oocyte electrophysiology, ratio of currents in presence/absence of compound, 0.1 μM: 0.1 μM compound; for oocyte electrophysiology, ratio of currents in presence/absence of compound, 0.1 μM / oocyte electrophysiology, ratio of currents in presence/absence of compound, 1 μM / oocyte electrophysiology, ratio of currents in presence/absence of compound, 10 μM: 2 μM GABA control, N≥4 oocytes; for oocyte electrophysiology, ratio of currents in presence/absence of compound, 1 μM: 1 μM compound; for oocyte electrophysiology, ratio of currents in presence/absence of compound, 10 μM: 10 μM compound; for (gating) 10 μM, ratio of compound only current/2 μM GABA current: direct current gated by 10 μM compound in the absence of GABA, N≥4. As for the experimental part:
The compounds of the present disclosure were evaluated for the ability to potentiate chloride currents mediated by 2 μM GABA at rat α1β2γ2L type GABAA receptors expressed in Xenopus laevis oocytes and the results are shown in Table 2.
The GABA concentration used for the control response was 2 μM. Each compound was evaluated on at least four different oocytes at the concentrations indicated, and the results reported are the ratio of currents measured in the presence/absence of added compound. Gating represents direct current gated by 10 μM compound in the absence of GABA, and this current is reported as the ratio of compound only current/2 μM GABA current. Error limits are calculated as standard error of the mean (N≥4). Methods used are known in the art (see Jiang, X., et al.).

The target in assay [2] is picrotoxin binding site on GABAA receptors. Kind of assay: [35S]-TBPS displacement (inhibition of [35S]-TBPS binding). To be noted: duplicate experiments performed in triplicate; ± standard error of the mean. As for the experimental part: The IC50 values for non-competitive displacers of [^35S]-TBPS from the picrotoxin binding site on GABAA receptors are reported in Table 1.
^aResults presented are from duplicate experiments performed in triplicate. Error limits are calculated as standard error of the mean. Methods used are known in the art (see Jiang, X., et al., Neurosteroid analogues. 9. Conformationally constrained pregnanes: structure-activity studies of 13,24-cyclo-18,21-dinorcholane analogues of the GABA modulatory and anesthetic steroids (3α,5α)- and […]. J. Med. Chem., 46: 5334-48 (2003)—the contents of which are hereby incorporated by reference in their entirety).

For assay [3], the system named is Tadpole. Nature of the assay: Tadpole loss of righting reflex (LRR) and loss of swimming reflex (LSR). The assay is classed as in vivo. Particulars: N=10 or more animals at each of five or more concentrations, ± SEM; for Tadpole LSR EC50 (μM): loss of swimming reflex; for Tadpole LRR EC50 (μM): loss of righting reflex. As for the experimental part: Table 3 discloses the anesthetic effects of the compounds of the present disclosure. In particular, the anesthetic effect of the compounds of the present disclosure on Loss of Righting Reflex (LRR) and Loss of Swimming Reflex (LSR).
Methods used are known in the art (see Jiang, X., et al.). Error limits are calculated as standard error of the mean (N=10 or more animals at each of five or more different concentrations).

Assay [4] relates to male Sprague Dawley rats. Nature of the assay: Rat loss of righting reflex (LRR), intravenous bolus. Particulars: rat dose 15 mg/kg. The format is in vivo. As for the experimental part:
The plasma pharmacokinetics and a qualitative assessment of sedation were obtained in male Sprague Dawley rats according to the following procedure. Rats were dosed by intravenous bolus dose (60 seconds) via the foot dorsal vein at doses ranging from 5 to 15 mg/kg in an appropriate vehicle. In order to assess sedation, rats were gently restrained by hand to a lateral position for dose administration. […] If the animal was unable to return to an upright position, the time was recorded as the onset of loss of righting reflex (LRR). […] Sluggish or incomplete righting twice consecutively within a 30 second interval qualifies as a loss of righting reflex. After onset of LRR, animals were assessed every 5 minutes in the same manner. Recovery of righting reflex is defined as the ability of a rat to right itself completely within 20 seconds of being placed in dorsal recumbency. The duration of LRR is defined as the time interval between LRR and the return of righting reflex.

Assay [5] has as its system male beagle dogs. Nature of the assay: Dog duration of lateral recumbence, intravenous bolus. The assay is classed as in vivo. To be noted: dog dose 5 mg/kg. As for the experimental part: The plasma pharmacokinetics and a qualitative assessment of sedation were obtained in male beagle dogs according to the following procedure. Dogs were dosed by intravenous bolus dose (60 seconds) via the cephalic vein at 5 mg/kg dose in an appropriate vehicle. In order to assess sedation, dogs were gently restrained for dose administration. If decreased muscle tone, limb weakness, or head drop was observed during dose administration, onset of lateral recumbence was recorded. […] Sluggish or incomplete righting to the sternal position qualifies as lateral recumbence. After onset of lateral recumbence, animals were assessed every 5 minutes in the same manner. The duration of lateral recumbence was recorded as the time interval between onset of lateral recumbence and the return to sternal position.

Bounds are passed on as bounds.

For the compound `COC[C@]12CCC(O)CC1CC[C@@H]1[C@@H]2CC[C@]2(C)C(=O)CC[C@@H]12` (stereo in doubt) [30, MQ-94, (3α,5β)-3-Hydroxy-19-methoxyandrostan-17-one], in assay [1], the “oocyte electrophysiology, ratio of currents in presence/absence of compound, 0.1 μM” value came out at 0.90 ± 0.02; the “oocyte electrophysiology, ratio of currents in presence/absence of compound, 1 μM” value turned out to be 0.88 ± 0.01; the “oocyte electrophysiology, ratio of currents in presence/absence of compound, 10 μM” value is given as 0.84 ± 0.02; the “(gating) 10 μM, ratio of compound only current/2 μM GABA current” value (from here on “(gating) 10 μM, ratio”) worked out at 0.03. In assay [2], the IC50 was > 30000 nM. For the same compound, the “Tadpole LSR EC50 (μM)” value in assay [3] was “None”.

As to `COC[C@]12CCC(=O)C[C@@H]1CC[C@H]1[C@@H]3CC[C@H](OC)[C@@]3(C)CC[C@@H]12` [7, MQ-88, (5α,17β)-17,19-Dimethoxyandrostan-3-one], in assay [1], the “oocyte electrophysiology, ratio of currents in presence/absence of compound, 0.1 μM” value amounted to 1.00 ± 0; the “oocyte electrophysiology, ratio of currents in presence/absence of compound, 1 μM” value stood at 0.85 ± 0.01; the “oocyte electrophysiology, ratio of currents in presence/absence of compound, 10 μM” value stood at 1.07 ± 0.02; the “(gating) 10 μM, ratio” value was 0.04 ± 0.03. Moreover, the IC50 in assay [2] amounted to 8700 nM.

Turning to `COC[C@]12CC[C@@H](O)C[C@@H]1CC[C@H]1[C@@H]3CC[C@H](OC)[C@@]3(C)CC[C@@H]12` [8, MQ-89, (5α,17β)-17,19-Dimethoxyandrostan-3-ol], in assay [4], the “Duration of Rat LRR” value is recorded as “C (C >20 min)”. Also, in assay [1], the “oocyte electrophysiology, ratio of currents in presence/absence of compound, 0.1 μM” value was determined as 1.65 ± 0.08; the “oocyte electrophysiology, ratio of currents in presence/absence of compound, 1 μM” value is reported as 7.63 ± 0.77; the “oocyte electrophysiology, ratio of currents in presence/absence of compound, 10 μM” value came out at 20.9 ± 2.73; the “(gating) 10 μM, ratio” value was found to be 0.22 ± 0.01. This compound also showed an IC50 in assay [2] of 56 ± 2 nM. Moreover, in assay [5], the “Duration of Dog Lateral Recumbence” value was “C (C >20 min)”.

Turning to `COC[C@]12CC[C@@H](O)C[C@@H]1CC[C@@H]1[C@@H]2CC[C@@]2(C)[C@H]1CC[C@@]21CO1` [12, MQ-90, (3α,5α,17β)-19-Methoxyspiro[androstane-17,2′-oxiran]-3-ol], in assay [1], the “oocyte electrophysiology, ratio of currents in presence/absence of compound, 0.1 μM” value worked out at 1.24 ± 0.05; the “oocyte electrophysiology, ratio of currents in presence/absence of compound, 1 μM” value amounted to 7.40 ± 1.43; the “oocyte electrophysiology, ratio of currents in presence/absence of compound, 10 μM” value stood at 18.7 ± 6.19; the “(gating) 10 μM, ratio” value is reported as 0.14 ± 0.04. Besides, the IC50 in assay [2] amounted to 79 ± 4 nM.

For the compound `COC[C@]12CC[C@@H](O)C[C@@H]1CC[C@@H]1[C@@H]2CC[C@]2(C)C(C#N)=CC[C@@H]12` [15, MQ-91, (3α,5α)-3-Hydroxy-19-methoxyandrost-16-ene-17-carbonitrile], in assay [1], the “oocyte electrophysiology, ratio of currents in presence/absence of compound, 0.1 μM” value came to 1.27 ± 0.13; the “oocyte electrophysiology, ratio of currents in presence/absence of compound, 1 μM” value was determined as 5.34 ± 0.86; the “oocyte electrophysiology, ratio of currents in presence/absence of compound, 10 μM” value was 25.6 ± 3.23; the “(gating) 10 μM, ratio” value was 0.10 ± 0.09. Also, the IC50 in assay [2] was 118 ± 13 nM.

As for `COC[C@]12CC[C@@H](O)C[C@@H]1CC[C@H]1[C@@H]3CC[C@H](C(C)=O)[C@@]3(C)CC[C@@H]12` [17, MQ-93, (3α,5α)-3-Hydroxy-19-methoxypregnan-20-one], the “Duration of Rat LRR” value in assay [4] is reported as “C (C >20 min)”. In assay [1], the “oocyte electrophysiology, ratio of currents in presence/absence of compound, 0.1 μM” value was 2.15 ± 0.19; the “oocyte electrophysiology, ratio of currents in presence/absence of compound, 1 μM” value is 12.8 ± 1.74; the “oocyte electrophysiology, ratio of currents in presence/absence of compound, 10 μM” value is given as 33.8 ± 5.44; the “(gating) 10 μM, ratio” value turned out to be 0.23 ± 0.07. Besides, the IC50 in assay [2] was 47 ± 4 nM.

Consider `COC[C@]12CC[C@@H](O)C[C@@H]1CC[C@H]1[C@@H]3CC[C@H](C(=O)CO)[C@@]3(C)CC[C@@H]12` [20, MQ-98, (3α,5α)-3,21-Dihydroxy-19-methoxypregnan-20-one], for which, in assay [4], the “Duration of Rat LRR” value is given as “A (A <10 min)”. In assay [1], the “oocyte electrophysiology, ratio of currents in presence/absence of compound, 0.1 μM” value stood at 0.98 ± 0.01; the “oocyte electrophysiology, ratio of currents in presence/absence of compound, 1 μM” value is given as 2.76 ± 0.27; the “oocyte electrophysiology, ratio of currents in presence/absence of compound, 10 μM” value came to 19.0 ± 2.31; the “(gating) 10 μM, ratio” value stood at 0.09 ± 0.05. The same compound had an IC50 in assay [2] of 345 ± 61 nM.

Consider `COC[C@]12CCC(=O)C=C1CC[C@@H]1[C@@H]2CC[C@]2(C)[C@@H](OC)CC[C@@H]12` [24, MQ-99, (17β)-17,19-Dimethoxyandrost-4-en-3-one], for which, in assay [1], the “oocyte electrophysiology, ratio of currents in presence/absence of compound, 0.1 μM” value was 0.88 ± 0.08; the “oocyte electrophysiology, ratio of currents in presence/absence of compound, 1 μM” value came out at 0.63 ± 0.06; the “oocyte electrophysiology, ratio of currents in presence/absence of compound, 10 μM” value was 1.06 ± 0.17; the “(gating) 10 μM, ratio” value is 0.11 ± 0.17. This compound also yielded an IC50 in assay [2] of 14500 nM. In assay [3], the “Tadpole LRR EC50 (μM)” value was “None” and the “Tadpole LSR EC50 (μM)” value is listed as “None”.

On to `COC[C@]12CC[C@@H](O)CC1=CC[C@@H]1[C@@H]2CC[C@]2(C)[C@@H](OC)CC[C@@H]12` [25, MQ-101, (3α,17β)-17,19-Dimethoxyandrost-5-en-3-ol], for which, in assay [1], the “oocyte electrophysiology, ratio of currents in presence/absence of compound, 0.1 μM” value stood at 0.94 ± 0.07; the “oocyte electrophysiology, ratio of currents in presence/absence of compound, 1 μM” value came to 1.97 ± 0.08; the “oocyte electrophysiology, ratio of currents in presence/absence of compound, 10 μM” value is 15.7 ± 0.90; the “(gating) 10 μM, ratio” value came out at 0.08 ± 0.07. Besides, the IC50 in assay [2] was 583 ± 71 nM.

On to `COC[C@]12CC[C@H](O)CC1=CC[C@@H]1[C@@H]2CC[C@]2(C)[C@@H](OC)CC[C@@H]12` [26, MQ-100, (3β,17β)-17,19-Dimethoxyandrost-5-en-3-ol], for which, in assay [1], the “oocyte electrophysiology, ratio of currents in presence/absence of compound, 0.1 μM” value came out at 0.83 ± 0.03; the “oocyte electrophysiology, ratio of currents in presence/absence of compound, 1 μM” value is recorded as 0.76 ± 0.02; the “oocyte electrophysiology, ratio of currents in presence/absence of compound, 10 μM” value amounted to 0.78 ± 0.02; the “(gating) 10 μM, ratio” value was found to be 0.02 ± 0.02. This compound also had an IC50 in assay [2] of 17800 nM. In addition, in assay [3], the “Tadpole LRR EC50 (μM)” value is listed as “None” and the “Tadpole LSR EC50 (μM)” value is given as “None”.

On to `COC[C@]12CC[C@H](O)C[C@@H]1CC[C@H]1[C@@H]3CC[C@H](OC)[C@@]3(C)CC[C@@H]12` [31, MQ-96, (3β,5α,17β)-17,19-Dimethoxyandrostan-3-ol], for which, in assay [1], the “oocyte electrophysiology, ratio of currents in presence/absence of compound, 0.1 μM” value stood at 0.91 ± 0.02; the “oocyte electrophysiology, ratio of currents in presence/absence of compound, 1 μM” value is recorded as 0.97 ± 0.05; the “oocyte electrophysiology, ratio of currents in presence/absence of compound, 10 μM” value worked out at 1.10 ± 0.05; the “(gating) 10 μM, ratio” value was 0.02 ± 0. In addition, the IC50 in assay [2] is 7800 nM.
